Experiment [1] deals with T1, Bone morphogenetic protein 1 (Homo sapiens, UniProt P13497).
T1 sequence (P13497 whole entry): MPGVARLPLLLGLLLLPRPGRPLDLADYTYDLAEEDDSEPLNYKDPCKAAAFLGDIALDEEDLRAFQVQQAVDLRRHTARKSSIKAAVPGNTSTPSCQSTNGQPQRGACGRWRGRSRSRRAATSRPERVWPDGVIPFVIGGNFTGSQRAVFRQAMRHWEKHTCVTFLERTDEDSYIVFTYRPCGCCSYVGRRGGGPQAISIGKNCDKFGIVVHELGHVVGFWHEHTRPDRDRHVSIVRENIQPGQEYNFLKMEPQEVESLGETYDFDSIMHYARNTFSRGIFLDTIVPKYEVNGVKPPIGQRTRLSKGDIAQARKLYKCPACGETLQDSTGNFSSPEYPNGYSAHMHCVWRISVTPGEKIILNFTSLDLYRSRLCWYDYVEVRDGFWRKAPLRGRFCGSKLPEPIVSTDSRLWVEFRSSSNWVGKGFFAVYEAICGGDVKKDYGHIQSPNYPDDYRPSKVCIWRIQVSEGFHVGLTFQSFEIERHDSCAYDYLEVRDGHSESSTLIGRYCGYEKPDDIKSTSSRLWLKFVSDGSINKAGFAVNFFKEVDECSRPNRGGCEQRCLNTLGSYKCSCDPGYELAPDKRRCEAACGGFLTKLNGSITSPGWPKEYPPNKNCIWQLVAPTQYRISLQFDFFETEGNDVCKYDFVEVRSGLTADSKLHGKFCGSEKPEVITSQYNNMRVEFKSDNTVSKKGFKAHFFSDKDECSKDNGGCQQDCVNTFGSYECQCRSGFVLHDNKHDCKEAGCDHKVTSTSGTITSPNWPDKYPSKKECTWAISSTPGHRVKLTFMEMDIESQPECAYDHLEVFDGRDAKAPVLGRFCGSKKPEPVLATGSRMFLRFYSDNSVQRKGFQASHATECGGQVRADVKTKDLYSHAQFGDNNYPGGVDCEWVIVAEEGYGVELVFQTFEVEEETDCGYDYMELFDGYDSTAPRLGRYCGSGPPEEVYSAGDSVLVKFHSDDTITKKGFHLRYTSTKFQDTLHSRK
Description: Inhibition of C-terminal FLAG-6x-His epitope tagged and N-terminal human RAGE signal sequence tagged human BMP1 (23 to 721 amino acids) expressed in CHO-E1 cells pre-incubated for 10 mins before promyostatin peptide substrate addition and measured after 60 mins using 0.5 nM BMP1 by FRET based assay. The format is cell-based.

In experiment [2] the target is T1, Bone morphogenetic protein 1. As to the kind of experiment: Inhibition of C-terminal FLAG-6x-His epitope tagged and N-terminal human RAGE signal sequence tagged human BMP1 (23 to 721 amino acids) expressed in CHO-E1 cells pre-incubated for 10 mins before promyostatin peptide substrate addition and measured after 30 mins using 50 nM BMP1 by FRET based assay. Type of experiment: cell-based.

For experiment [3], the target named is Tolloid-like protein 1 (Homo sapiens, UniProt O43897, I156V/N221S/V284A). As to the kind of experiment: Inhibition of recombinant human TLL1 I156V/N221S/V284A mutant expressed in CHOE1A cells pre-incubated for 10 mins before promyostatin peptide substrate addition and measured after 60 mins by FRET based assay. Type of experiment: cell-based.
Chain of Tolloid-like protein 1 (O43897 148-1013 I156V/N221S/V284A limits assumed): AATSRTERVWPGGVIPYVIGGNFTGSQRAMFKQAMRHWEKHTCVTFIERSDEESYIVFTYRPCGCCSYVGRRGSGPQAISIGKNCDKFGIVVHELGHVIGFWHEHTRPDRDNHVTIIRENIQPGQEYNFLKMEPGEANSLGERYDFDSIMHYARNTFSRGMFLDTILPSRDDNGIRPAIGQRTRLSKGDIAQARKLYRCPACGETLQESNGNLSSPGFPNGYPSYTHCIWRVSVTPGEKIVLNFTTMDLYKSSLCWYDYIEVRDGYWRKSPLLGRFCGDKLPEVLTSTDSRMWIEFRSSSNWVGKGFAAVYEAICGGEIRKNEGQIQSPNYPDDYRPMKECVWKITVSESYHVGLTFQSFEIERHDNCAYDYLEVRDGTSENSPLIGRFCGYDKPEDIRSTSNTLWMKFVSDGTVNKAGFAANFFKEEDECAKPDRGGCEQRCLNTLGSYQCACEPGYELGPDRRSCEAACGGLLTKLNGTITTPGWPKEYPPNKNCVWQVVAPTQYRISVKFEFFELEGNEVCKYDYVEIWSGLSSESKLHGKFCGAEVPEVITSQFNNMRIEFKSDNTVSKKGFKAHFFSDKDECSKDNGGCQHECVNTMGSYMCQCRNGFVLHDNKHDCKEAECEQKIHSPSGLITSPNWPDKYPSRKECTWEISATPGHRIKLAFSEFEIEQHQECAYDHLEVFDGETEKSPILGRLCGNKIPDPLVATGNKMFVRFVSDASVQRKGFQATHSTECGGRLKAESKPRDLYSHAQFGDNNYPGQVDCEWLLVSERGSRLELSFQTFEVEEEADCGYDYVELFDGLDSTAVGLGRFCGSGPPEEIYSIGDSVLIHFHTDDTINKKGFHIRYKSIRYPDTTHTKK
In experiment [4] the target is T2, Tolloid-like protein 2 (Homo sapiens, UniProt Q9Y6L7).
T2 sequence (Q9Y6L7 whole entry): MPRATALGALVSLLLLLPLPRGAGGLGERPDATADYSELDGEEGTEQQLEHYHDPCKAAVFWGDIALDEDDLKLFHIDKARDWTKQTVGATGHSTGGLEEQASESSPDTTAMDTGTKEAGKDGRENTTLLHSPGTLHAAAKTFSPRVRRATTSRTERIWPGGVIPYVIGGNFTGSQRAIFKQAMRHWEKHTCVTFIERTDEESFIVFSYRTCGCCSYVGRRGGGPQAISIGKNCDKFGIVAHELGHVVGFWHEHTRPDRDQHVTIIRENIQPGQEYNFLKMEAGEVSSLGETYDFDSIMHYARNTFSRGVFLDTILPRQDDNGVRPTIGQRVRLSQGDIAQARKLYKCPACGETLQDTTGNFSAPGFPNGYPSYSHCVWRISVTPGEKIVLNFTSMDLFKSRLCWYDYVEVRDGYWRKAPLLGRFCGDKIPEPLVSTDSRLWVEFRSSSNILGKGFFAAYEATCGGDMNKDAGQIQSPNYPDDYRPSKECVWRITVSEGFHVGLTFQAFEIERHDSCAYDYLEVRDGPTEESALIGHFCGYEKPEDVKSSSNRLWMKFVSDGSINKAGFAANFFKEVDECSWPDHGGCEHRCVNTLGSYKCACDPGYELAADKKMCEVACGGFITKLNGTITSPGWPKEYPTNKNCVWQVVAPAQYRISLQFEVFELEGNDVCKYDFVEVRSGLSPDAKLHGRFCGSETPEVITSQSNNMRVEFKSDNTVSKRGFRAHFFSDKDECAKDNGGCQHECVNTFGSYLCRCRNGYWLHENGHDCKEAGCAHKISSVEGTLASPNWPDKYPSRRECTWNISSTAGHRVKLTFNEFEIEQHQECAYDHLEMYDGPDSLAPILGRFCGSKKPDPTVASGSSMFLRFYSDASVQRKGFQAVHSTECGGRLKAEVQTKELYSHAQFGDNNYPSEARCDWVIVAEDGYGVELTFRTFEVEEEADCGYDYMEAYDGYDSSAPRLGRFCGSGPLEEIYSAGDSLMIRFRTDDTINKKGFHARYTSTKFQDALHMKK
As to the kind of experiment: Inhibition of C-terminal Avi-6x-His epitope tagged and N-terminal human RAGE signal sequence tagged recombinant human TLL2 (26 to 1015 amino acids) expressed in CHOE1A cells incubated for 60 mins with promyostatin peptide substrate by FRET based assay. Type of experiment: cell-based.

A short description of experiment [5]: Reduction in PICP levels in human cardiac fibroblasts incubated for 24 to 48 hrs by ELISA. The format is functional. An outline of the steps: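 Human cardiac fibroblasts (passage 6 or below) were seeded at 10,000 to 15,000 cells per well in 96-well plates. The next day they were treated in ficoll crowding EMEM with 100 μM ascorbic acid and under 0.3% DMSO, for 24 to 48 hr at 37° C. Procollagen I C-terminal propeptide in the medium was measured with a Quidel ELISA. IC50 came from fitting levels relative to untreated controls to a log(inhibitor)-response equation in GraphPad Prism.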

Experiment [6] can be described thus: Reduction in mature collagen deposition levels in human cardiac fibroblasts incubated for 24 to 48 hrs by immunostaining based assay. Type of experiment: functional. In short, it runs like this: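 Human cardiac fibroblasts in 96-well plates were treated in ficoll crowding EMEM with 100 μM ascorbic acid and under 0.3% DMSO, for 24 to 48 hr at 37° C. Cells were fixed in −20° C methanol for 10 min. They were stained with anti-mature collagen I antibody, Alexa647 secondary antibody and Hoechst, then imaged on an Operetta system. Collagen intensity was normalised to nuclei count per field, and IC50 was fitted in GraphPad Prism.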

What is called IC50 is the point on the concentration scale where inhibition reaches its midpoint. Turning to `CCCCC[C@H](CN(O)C=O)C(=O)NCNC(=O)c1ccc(-c2ccccc2)o1`, the half-maximal inhibitory concentration (IC50) in experiment [1] was less than 0.126 µM; in experiment [2], less than 0.2 µM; in experiment [3], less than 0.398 µM; in experiment [4], less than 0.794 µM; in experiment [5] it was less than 3.98 µM; in experiment [6] it was less than 1 µM.

In the case of `CCCCC[C@@H](C(=O)NCNC(=O)c1ccc(-c2cc(OCC)cc(C(=O)O)c2)o1)[C@@H](CC)N(O)C=O`, the IC50 in experiment [1] was less than 0.126 µM; in experiment [2] it was less than 0.2 µM; in experiment [3], less than 0.398 µM; in experiment [4], less than 0.794 µM; in experiment [5], less than 3.98 µM; in experiment [6], less than 1 µM.

In the case of `CCCCC[C@@H](C(=O)NCNC(=O)c1ccc(-c2ccccc2)o1)[C@@H](CC)N(O)C=O`, the IC50 was less than 0.126 µM in experiment [1]; less than 0.2 µM in experiment [2]; less than 0.398 µM in experiment [3]; less than 0.794 µM in experiment [4]; less than 3.98 µM in experiment [5]; less than 1 µM in experiment [6].

In the case of `CCCCC[C@@H](C(=O)NCNC(=O)c1ccc(-c2ccc(C(=O)N[C@@H](CC(=O)O)C(=O)O)c(OCC)c2)o1)[C@@H](CC)N(O)C=O`, the IC50 in experiment [1] is less than 0.126 µM; in experiment [2], less than 0.2 µM; in experiment [3], less than 0.398 µM; in experiment [4], less than 0.794 µM; in experiment [5], less than 3.98 µM; in experiment [6], less than 1 µM.

As for `CCCCC[C@@H](C(=O)NCNC(=O)c1ccc(-c2cc(OCC)cc(C(=O)N[C@@H](CC(=O)O)C(=O)O)c2)o1)[C@@H](CC)N(O)C=O`, the IC50 in experiment [1] is less than 0.126 µM; in experiment [2], less than 0.2 µM; in experiment [3], less than 0.398 µM; in experiment [4], less than 0.794 µM; in experiment [5], less than 3.98 µM; in experiment [6], less than 1 µM.

On to `CCCCC[C@@H](C(=O)NCNC(=O)c1ccc(-c2ccc(C(=O)O)c(O)c2)o1)[C@@H](CC)N(O)C=O`, for which the IC50 in experiment [1] is less than 0.126 µM; in experiment [2], less than 0.2 µM; in experiment [3], less than 0.398 µM; in experiment [4], less than 0.794 µM; in experiment [5], less than 3.98 µM.

Consider `CCCCC[C@@H](C(=O)NCNC(=O)c1ccc(-c2ccc(CC(=O)N[C@@H](CC(=O)O)C(=O)O)c(OCC)c2)o1)[C@@H](CC)N(O)C=O`, for which the IC50 was less than 0.126 µM in experiment [1]; less than 0.2 µM in experiment [2]; less than 0.398 µM in experiment [3]; less than 0.794 µM in experiment [4]; less than 3.98 µM in experiment [5]; less than 1 µM in experiment [6].

Regarding `CCCCC[C@@H](C(=O)NCNC(=O)c1ccc(-c2cc(O)cc(P(=O)(O)O)c2)o1)[C@@H](CC)N(O)C=O`, the IC50 in experiment [1] is less than 0.126 µM; in experiment [2], less than 0.2 µM; in experiment [3] it was less than 0.398 µM; in experiment [4], less than 0.794 µM; in experiment [5], less than 3.98 µM.

As to `CCCCC[C@@H](C(=O)NCNC(=O)c1ccc(-c2cc(OCC)cc(C(=O)N[C@@H](CC(=O)O)C(=O)OC(C)(C)C)c2)o1)[C@@H](CC)N(O)C=O`, the IC50 in experiment [1] was less than 0.126 µM; in experiment [2], less than 0.2 µM; in experiment [3], less than 0.398 µM; in experiment [4], less than 0.794 µM; in experiment [5] it was less than 3.98 µM; in experiment [6] it was less than 1 µM.

In the case of `CCCCC[C@@H](C(=O)NCNC(=O)c1ccc(-c2ccc(C(=O)NCP(=O)(O)O)c(O)c2)o1)[C@@H](CC)N(O)C=O`, the IC50 is less than 0.126 µM in experiment [1]; less than 0.2 µM in experiment [2]; less than 0.398 µM in experiment [3]; less than 0.794 µM in experiment [4]; less than 3.98 µM in experiment [5].

Turning to `CCCCC[C@@H](C(=O)NCNC(=O)c1ccc(-c2ccc(C(=O)NCP(=O)(O)O)cc2)o1)[C@@H](CC)N(O)C=O`, the IC50 is less than 0.126 µM in experiment [1]; less than 0.2 µM in experiment [2]; less than 0.398 µM in experiment [3]; less than 0.794 µM in experiment [4]; less than 3.98 µM in experiment [5].

`CCCCC[C@@H](C(=O)NCNC(=O)c1ccc(-c2cc(OCC(=O)O)cc(P(=O)(O)O)c2)o1)[C@@H](CC)N(O)C=O`: the IC50 in experiment [1] is less than 0.126 µM; in experiment [2], less than 0.2 µM; in experiment [3], less than 0.398 µM; in experiment [4] it was less than 0.794 µM; in experiment [5], less than 3.98 µM.

Take `CCCCC[C@@H](C(=O)NCNC(=O)c1ccc(-c2cc(CNCP(=O)(O)O)cc(OCC)c2)o1)[C@@H](CC)N(O)C=O`: the IC50 was less than 0.126 µM in experiment [1]; less than 0.2 µM in experiment [2]; less than 0.398 µM in experiment [3]; less than 0.794 µM in experiment [4]; less than 3.98 µM in experiment [5].

Turning to `CCOc1cc(-c2ccc(C(=O)NCNC(=O)[C@H](CCc3ccccc3)[C@@H](CC)N(O)C=O)o2)cc(P(=O)(O)O)c1`, the IC50 is less than 0.126 µM in experiment [1]; less than 0.2 µM in experiment [2]; less than 0.398 µM in experiment [3]; less than 0.794 µM in experiment [4]; less than 3.98 µM in experiment [5].

Turning to `CCCCC[C@@H](C(=O)NCNC(=O)c1ccc(-c2cccc(C3(C(=O)O)CC3)c2)o1)[C@@H](CC)N(O)C=O`, the IC50 in experiment [1] is less than 0.126 µM; in experiment [2], less than 0.2 µM; in experiment [3], less than 0.398 µM; in experiment [4], less than 0.794 µM; in experiment [5], less than 3.98 µM; in experiment [6] it was less than 1 µM.

With `CCCCC[C@@H](C(=O)NCNC(=O)c1ccc(-c2ccc(C(=O)N(CC(=O)O)CC(=O)O)cc2)o1)[C@@H](CC)N(O)C=O`, the IC50 in experiment [1] was less than 0.126 µM; in experiment [2] it was less than 0.2 µM; in experiment [3] it was less than 0.398 µM; in experiment [4], less than 0.794 µM; in experiment [5] it was less than 3.98 µM.

As to `CCCCC[C@@H](C(=O)NCNC(=O)c1ccc(-c2ccc(C(=O)NCP(=O)(O)O)c(C)c2)o1)[C@@H](CC)N(O)C=O`, the IC50 in experiment [1] is less than 0.126 µM; in experiment [2], less than 0.2 µM; in experiment [3], less than 0.398 µM; in experiment [4], less than 0.794 µM; in experiment [5] it was less than 3.98 µM.

For the origin of these results see ChEMBL document CHEMBL4476867, “Hydroxy formamide derivatives and their use” (2016).
